# Patent publication US5413990A, “N-terminus modified analogs of LHRH” (Tap Pharmaceuticals Inc., priority 1993, dated 1995)
# Numbered stars: 1 amine (or outer) side, 2 acyl side, 3 side chain; on linkers, the order of the positions; unused ones are H or OH. Square brackets hold non-standard residues; d marks the D form. Peptide text beside a SMILES is read from it. * marks the point of attachment. dPhe(4-Cl) = N[C@H](Cc1ccc(Cl)cc1)C(=O)O; Desaminotyrosyl = O=C(CCc1ccc(O)cc1)*; d2Nal = N[C@H](Cc1ccc2ccccc2c1)C(=O)O; Lys(iPr) = CC(C)NCCCC[C@H](N)C(=O)O; NMeY = CN[C@@H](Cc1ccc(O)cc1)C(=O)O; Cyclopropanecarbonyl = O=C(C1CC1)*; NHCH2(2-pyridyl) = c1ccc(CN*)nc1; Piperazinyl(4-Me) = CN1CCN(*)CC1; dCit = NC(=O)NCCC[C@@H](N)C(=O)O; d3Pal = N[C@H](Cc1cccnc1)C(=O)O; Suc = O=C(CCC(=O)[*:2])[*:1]; Succinamoyl = NC(=O)CCC(=O)*; Nicotinoyl = O=C(c1cccnc1)*; X2 = O=C(CCc1ccc2ccccc2c1)*; PhAc = O=C(Cc1ccccc1)*; CO = O=C([*:1])[*:2]; Propionyl = CCC(=O)*; X4 = N#CCC(=O)*
# Molecular target: T1, LHRH (Rattus norvegicus, UniProt P30969)
# T1 construct: evaluated in an in vitro test for LHRH antagonist potency (pA2); endogenous in cells; host or cells: pituitary cells (rat, from my own knowledge of the cited method)
# T1 sequence (P30969 1-327): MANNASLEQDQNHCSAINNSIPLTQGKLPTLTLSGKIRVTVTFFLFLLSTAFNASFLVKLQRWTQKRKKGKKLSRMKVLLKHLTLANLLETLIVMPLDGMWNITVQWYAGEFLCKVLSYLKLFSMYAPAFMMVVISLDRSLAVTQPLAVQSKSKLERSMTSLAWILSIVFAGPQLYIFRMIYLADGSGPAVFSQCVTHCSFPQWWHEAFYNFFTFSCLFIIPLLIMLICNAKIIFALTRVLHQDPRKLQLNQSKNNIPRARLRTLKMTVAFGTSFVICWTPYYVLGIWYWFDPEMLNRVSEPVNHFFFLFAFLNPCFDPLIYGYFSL
# Experiment: in vitro test for LHRH antagonist potency (pA2)
# Format: cell-based
# Details: negative logarithm of the antagonist concentration required to shift the response curve produced by the agonist leuprolide to two-fold higher concentration
# Protocol: Representative compounds of the present invention were evaluated in an in vitro test for LHRH antagonist potency (pA2). The test employed the method detailed in F. Haviv, et al. J. Med. Chem., 32:2340-2344 (1989). The values of pA2 are the negative logarithms of the concentration of the particular antagonist test compound required to shift the response curve produced by the agonist leuprolide to two-fold higher concentration. (Leuprolide is the LHRH agonist having the structure 5-oxo-Pro^1 -His^2 -Trp^3 -Ser^4 -Tyr^5 -D-Leu^6 -Leu^7 -Arg^8 -Pro^9 -NHEt and is disclosed and claimed in U.S. Pat. No. 4,005,063.) Typically pA2 values of 9.5 or greater are indicative of good LHRH antagonist potency, with values of 10.0 or greater being preferred.
row,SMILES,Kb
1,"CC(C)C[C@H](NC(=O)[C@@H](CCCNC(N)=O)NC(=O)[C@H](Cc1ccc(O)cc1)N(C)C(=O)[C@H](CO)NC(=O)[C@@H](Cc1cccnc1)NC(=O)[C@@H](Cc1ccc(Cl)cc1)NC(=O)[C@@H](Cc1ccc2ccccc2c1)NC(=O)CCC(N)=O)C(=O)N[C@@H](CCCNC(=N)N)C(=O)N1CCC[C@H]1C(=O)N[C@H](C)C(N)=O [Example 5d, N-Succinamyl-D2Nal-D4ClPhe-D3Pal-Ser-NMeTyr-DCit-Leu-Arg-Pro-DAlaNH2] (Succinamoyl-[d2Nal][dPhe(4-Cl)][d3Pal]S[NMeY][dCit]LRP[dA]-NH2)",0.00646 nM
2,"CC(C)C[C@H](NC(=O)[C@@H](CCCCNC(=O)c1cccnc1)NC(=O)[C@H](Cc1ccc(O)cc1)N(C)C(=O)[C@H](CO)NC(=O)[C@@H](Cc1cccnc1)NC(=O)[C@@H](Cc1ccc(Cl)cc1)NC(=O)[C@@H](Cc1ccc2ccccc2c1)NC(=O)CCC(=O)O)C(=O)N[C@@H](CCCCNC(C)C)C(=O)N1CCC[C@H]1C(=O)N[C@H](C)C(N)=O [Example 3, N-Succinyl-D2Nal-D4ClPhe-D3Pal-Ser-NMeTyr-DLys(Nicotinyl)-Leu-Lys(N-epsilon-lsopropyl.)-Pro-DAlaNH2] (Suc-[d2Nal][dPhe(4-Cl)][d3Pal]S[NMeY][dK](Nicotinoyl)L[Lys(iPr)]P[dA]-NH2)",0.0513 nM
3,"CC(C)C[C@H](NC(=O)[C@@H](CCCNC(N)=O)NC(=O)[C@H](Cc1ccc(O)cc1)N(C)C(=O)[C@H](CO)NC(=O)[C@@H](Cc1cccnc1)NC(=O)[C@@H](Cc1ccc(Cl)cc1)NC(=O)[C@@H](Cc1ccc2ccccc2c1)NC(=O)N1CCN(C)CC1)C(=O)N[C@@H](CCCNC(=N)N)C(=O)N1CCC[C@H]1C(=O)N[C@H](C)C(N)=O [Example 8d, N-(N'-Methylpiperazinylcarbonyl)-D2Nal-D4ClPhe-D3Pal-Ser-NMeTyr-DCit-Leu-Arg-Pro-DAlaNH2] ({Piperazinyl(4-Me)-CO}-[d2Nal][dPhe(4-Cl)][d3Pal]S[NMeY][dCit]LRP[dA]-NH2)",0.0398 nM
4,"CC(C)C[C@H](NC(=O)[C@@H](CCCCNC(=O)c1cccnc1)NC(=O)[C@H](Cc1ccc(O)cc1)N(C)C(=O)[C@H](CO)NC(=O)[C@@H](Cc1cccnc1)NC(=O)[C@@H](Cc1ccc(Cl)cc1)NC(=O)[C@@H](Cc1ccc2ccccc2c1)NC(=O)Cc1ccccc1)C(=O)N[C@@H](CCCCNC(C)C)C(=O)N1CCC[C@H]1C(=O)N[C@H](C)C(N)=O [Example 2k, N-Phenylacetyl-D2Nal-D4ClPhe-D3Pal-Ser-NMeTyr-DLys(N-epsilon-Nicotinyl)-Leu-Lys(N-epsilon-Isopropyl)-Pro-DAlaNH2] (PhAc-[d2Nal][dPhe(4-Cl)][d3Pal]S[NMeY][dK](Nicotinoyl)L[Lys(iPr)]P[dA]-NH2)",0.0141 nM
5,"CC(C)C[C@H](NC(=O)[C@@H](CCCNC(N)=O)NC(=O)[C@H](Cc1ccc(O)cc1)N(C)C(=O)[C@H](CO)NC(=O)[C@@H](Cc1cccnc1)NC(=O)[C@@H](Cc1ccc(Cl)cc1)NC(=O)[C@@H](Cc1ccc2ccccc2c1)NC(=O)Cc1ccccc1)C(=O)N[C@@H](CCCNC(=N)N)C(=O)N1CCC[C@H]1C(=O)N[C@H](C)C(N)=O [Example 5f, NPhenylacetyl-D2Nal-D4ClPhe-D3Pal-Ser-NMeTyr-DCit-Leu-Arg-Pro-DAlaNH2] (PhAc-[d2Nal][dPhe(4-Cl)][d3Pal]S[NMeY][dCit]LRP[dA]-NH2)",0.0158 nM
6,"CCNC(=O)N[C@H](Cc1ccc2ccccc2c1)C(=O)N[C@H](Cc1ccc(Cl)cc1)C(=O)N[C@H](Cc1cccnc1)C(=O)N[C@@H](CO)C(=O)N(C)[C@@H](Cc1ccc(O)cc1)C(=O)N[C@H](CCCNC(N)=O)C(=O)N[C@@H](CC(C)C)C(=O)N[C@@H](CCCNC(=N)N)C(=O)N1CCC[C@H]1C(=O)N[C@H](C)C(N)=O [Example 8a, N-(Ethylaminocarbonyl)-D2Nal- D4ClPhe-D3Pal-Ser-NMeTyr-DCit-Leu-Arg-ProDAlaNH2] ({NHEt-CO}-[d2Nal][dPhe(4-Cl)][d3Pal]S[NMeY][dCit]LRP[dA]-NH2)",0.0933 nM
7,"CC(C)C[C@H](NC(=O)[C@@H](CCCCNC(=O)c1cccnc1)NC(=O)[C@H](Cc1ccc(O)cc1)N(C)C(=O)[C@H](CO)NC(=O)[C@@H](Cc1cccnc1)NC(=O)[C@@H](Cc1ccc(Cl)cc1)NC(=O)[C@@H](Cc1ccc2ccccc2c1)NC(=O)CCc1ccc(O)cc1)C(=O)N[C@@H](CCCCNC(C)C)C(=O)N1CCC[C@H]1C(=O)N[C@H](C)C(N)=O [Example 2m, N-3-(4-Hydroxyphenyl)propionyl-D2Nal-D4ClPhe-D3Pal-Ser-NMeTyr-DLys(N-epsilon-Nicotinyl)-Leu-Lys(N-epsilon -Isopropyl)-Pro-DAlaNH2] (Desaminotyrosyl-[d2Nal][dPhe(4-Cl)][d3Pal]S[NMeY][dK](Nicotinoyl)L[Lys(iPr)]P[dA]-NH2)",0.02 nM
8,"CCC(=O)N[C@H](Cc1ccc2ccccc2c1)C(=O)N[C@H](Cc1ccc(Cl)cc1)C(=O)N[C@H](Cc1cccnc1)C(=O)N[C@@H](CO)C(=O)N(C)[C@@H](Cc1ccc(O)cc1)C(=O)N[C@H](CCCNC(N)=O)C(=O)N[C@@H](CC(C)C)C(=O)N[C@@H](CCCNC(=N)N)C(=O)N1CCC[C@H]1C(=O)N[C@H](C)C(N)=O [Example 5b, N-Propionyl-D2Nal-D4ClPhe-D3Pal-Ser-NMeTyr-DCit-Leu-Arg-Pro-DAlaNH2] (Propionyl-[d2Nal][dPhe(4-Cl)][d3Pal]S[NMeY][dCit]LRP[dA]-NH2)",0.00347 nM
9,"CC(C)C[C@H](NC(=O)[C@@H](CCCNC(N)=O)NC(=O)[C@H](Cc1ccc(O)cc1)N(C)C(=O)[C@H](CO)NC(=O)[C@@H](Cc1cccnc1)NC(=O)[C@@H](Cc1ccc(Cl)cc1)NC(=O)[C@@H](Cc1ccc2ccccc2c1)NC(=O)NCc1ccccn1)C(=O)N[C@@H](CCCNC(=N)N)C(=O)N1CCC[C@H]1C(=O)N[C@H](C)C(N)=O [Example 8e, N-(2-Pyridyhnethylaminocarbonyl)-D2Nal-D4ClPhe-D3Pal- Ser-NMeTyr-DCit-Leu-Arg-Pro-DAlaNH2] ({NHCH2(2-pyridyl)-CO}-[d2Nal][dPhe(4-Cl)][d3Pal]S[NMeY][dCit]LRP[dA]-NH2)",0.00676 nM
10,"CC(C)C[C@H](NC(=O)[C@@H](CCCCNC(=O)c1cccnc1)NC(=O)[C@H](Cc1ccc(O)cc1)N(C)C(=O)[C@H](CO)NC(=O)[C@@H](Cc1cccnc1)NC(=O)[C@@H](Cc1ccc(Cl)cc1)NC(=O)[C@@H](Cc1ccc2ccccc2c1)NC(=O)CC#N)C(=O)N[C@@H](CCCCNC(C)C)C(=O)N1CCC[C@H]1C(=O)N[C@H](C)C(N)=O [Example 2e, N-Cyanoacetyl-D2Nal-D4ClPhe-D3Pal-Ser-NMeTyr-DLys(N-epsilon-Nicotinyl)-Leu- Lys(N-epsilon-Isopropyl)-Pro-DAlaNH2] (X4-[d2Nal][dPhe(4-Cl)][d3Pal]S[NMeY][dK](Nicotinoyl)L[Lys(iPr)]P[dA]-NH2)",0.00316 nM
11,"CC(C)C[C@H](NC(=O)[C@@H](CCCNC(N)=O)NC(=O)[C@H](Cc1ccc(O)cc1)N(C)C(=O)[C@H](CO)NC(=O)[C@@H](Cc1cccnc1)NC(=O)[C@@H](Cc1ccc(Cl)cc1)NC(=O)[C@@H](Cc1ccc2ccccc2c1)NC(=O)C1CC1)C(=O)N[C@@H](CCCNC(=N)N)C(=O)N1CCC[C@H]1C(=O)N[C@H](C)C(N)=O [Example 5e, N-Cyclopropylcarbonyl-D2Nal-D4ClPhe-D3PaI-Ser-NMeTyr-DCit-Leu-Arg-ProDAlaNH2] (Cyclopropanecarbonyl-[d2Nal][dPhe(4-Cl)][d3Pal]S[NMeY][dCit]LRP[dA]-NH2)",0.0112 nM
12,"CC(C)C[C@H](NC(=O)[C@@H](CCCCNC(=O)c1cccnc1)NC(=O)[C@H](Cc1ccc(O)cc1)N(C)C(=O)[C@H](CO)NC(=O)[C@@H](Cc1cccnc1)NC(=O)[C@@H](Cc1ccc(Cl)cc1)NC(=O)[C@@H](Cc1ccc2ccccc2c1)NC(=O)CCc1ccc2ccccc2c1)C(=O)N[C@@H](CCCCNC(C)C)C(=O)N1CCC[C@H]1C(=O)N[C@H](C)C(N)=O [Example 2o, N-3(2-Naphthyl)propionyl-D2Nal-D4ClPhe-D3Pal-Ser-NMeTyr-DLys(N-epsilon-Nicotinyl)-Leu-Lys(N-epsilon-Isopropyl) -Pro-DAlaNH2] (X2-[d2Nal][dPhe(4-Cl)][d3Pal]S[NMeY][dK](Nicotinoyl)L[Lys(iPr)]P[dA]-NH2)",0.0794 nM
